These are literature values, as cited in US9808468B2, “Formulation of meloxicam” (ICEUTICA PTY LTD., priority 2014, dated 2017).

SMILES strings stand for the structures.

Regarding `Cc1cnc(NC(=O)C2=C(O)c3ccccc3S(=O)(=O)N2C)s1` [Meloxicam, 4-hydroxy-2-methyl-N-(5-methyl-2-thiazolyl)-2H-1,2-benzothiazine-3-carboxamide-1,1-dioxide], the solubility in water entry is “practically insoluble”.
